Columns and labels:
[1] = Thermodynamic analysis experiment (heating, XRPD); type: physicochemical; settings: compared with crystalline form H and crystalline form S
Procedure: Crystalline form H and crystalline form S were heated to appropriate temperatures under N2 protection, and after cooling to room temperature, the XRPD of the solids was measured.

[2] = Suspension competition experiment; type: physicochemical; settings: compared with crystalline form O and crystalline form P; room temperature and 60° C.
Procedure: Place them at room temperature and 60° C. with magnetic stirring for about 1 hour respectively. […] Solids are used for XRPD testing.

[3] = Dynamic solubility in biological solvents at 37° C.; type: physicochemical
Procedure: (1) Preparation method of FaSSIF: a. Weigh 42 mg NaOH, 395 mg NaH2PO4·H2O and 619 mg NaCl in a 100 mL beaker, add 90 mL deionized water to dissolve: b. Adjust the pH to […]; Dilute to 100 mL with deionized water to obtain FaSSIF blank solvent: c. Weigh 224 mg of Simulated Intestinal Fluid (hereinafter referred to as SIF powder), add 50 mL of the above FaSSIF blank solvent, and stir until completely dissolved; use Dilute the FaSSIF blank solvent to 100 mL to prepare the solvent FaSSIF; d. Let it stand at room temperature for 2 hours before use.
(2) Preparation method of FeSSIF: a. Weigh 404 mg NaOH, 865 mg glacial acetic acid and 1189 mg NaCl in a 100 mL beaker, add 90 mL deionized water to dissolve: b. Adjust the pH to 5.0 with 1N NaOH or 1N HCl; Dilute to 100 mL with deionized water to obtain FeSSIF blank solvent; c. Weigh 1120 mg SIF powder and add 50 mL of the above FeSSIF blank solvent, stir until dissolved: dilute to 100 mL with FeSSIF blank solvent to obtain FeSSIF solvent d. Let it stand at room temperature before use to ensure a clear solution.
(3) Preparation method of SGF: a. Weigh 200 mg NaCl in a 100 mL beaker, add 90 mL deionized water to dissolve; b. Adjust the pH to 1.6 with 1N HCl; dilute to 100 mL with deionized water to obtain SGF Blank solvent; c. Weigh 6 mg SIF powder and add 50 mL of the above SGF blank solvent, stir until dissolved: dilute to 100 mL with SGF blank solvent to prepare the solvent SGF: d. Let it stand at room temperature before use to ensure a clear solution.
(100 rpm). Take 1.3 mL of the suspension (or clarified solution) respectively at 1, 4, and 24 hours, and centrifuge the suspension for 5 minutes. The solid obtained is used for crystal form detection (XRPD), and the supernatant/clarified solution is filtered for solubility testing and pH test.
Solubility data of the samples were collected using a high-performance liquid chromatograph equipped with an image diode array detector.

[4] = Solid state stability (HPLC purity, XRPD); type: physicochemical; settings: for Purity (%): open
Procedure: Purity testing (via HPLC) and crystal form detection (via XRPD) were performed on starting samples, samples stored for one week, and samples stored for two weeks.

[5] = Hygroscopicity experiment; type: physicochemical; settings: Chinese Pharmacopoeia 2020, General Chapter 9103
Procedure: The hygroscopicity data of the samples were collected using the ADVENTURE series dynamic gas phase adsorption instrument under N2 protection. The sample dosage is about 30 mg.
The hygroscopicity of the above crystalline form was determined with reference to the 2020 edition of the Chinese Pharmacopoeia, General Chapter 9103, Guidelines for Drug Hygroscopicity Tests.

[6] = Influencing factors test (light, high temperature, high humidity); type: physicochemical
Procedure: The stability of the crystalline form of the present invention under accelerated test conditions was determined. […] Stability testing was conducted under the following conditions, and samples were taken on the 0th day, the 5th day, the 10th day and the 30th day. The content, total impurities, and XRPD patterns of the samples were recorded and compared with the initial data.

[7] = Pharmacokinetic experiment; type: in vivo; settings: SD rats, single intragastric administration
Procedure: 12 SD rats were divided into two groups, with 6 rats in each group, half male and half female, and each was given a single intragastric administration; blood was collected through the fundus venous plexus at designated time points, and the plasma was separated and stored in a −80° C. refrigerator.
For the above plasma sample, after protein precipitation with acetonitrile, the supernatant was diluted with water and 5 μL was transferred to LC-MS/MS for detection.

[8] = High humidity test (25° C., 90 ± 5% RH), 5 d
[9] = High humidity test (25° C., 90 ± 5% RH), 10 d
[10] = High humidity test (25° C., 90 ± 5% RH), 30 d
[11] = High temperature test (60° C.), 5 d
[12] = High temperature test (60° C.), 10 d
[13] = High temperature test (60° C.), 30 d
[14] = Light test (Illuminance 5000 Lx and UV lamp energy 0.9 W/m^2), 5 d
[15] = Light test (Illuminance 5000 Lx and UV lamp energy 0.9 W/m^2), 10 d
[16] = Light test (Illuminance 5000 Lx and UV lamp energy 0.9 W/m^2), 30 d

C[C@@H](O)c1nc2cnc3[nH]ccc3c2n1N1CCC(CC#N)CC1 [Crystalline form A, (R)-2-(1-(2-(1-hydroxyethyl)imidazo[4,5-d]pyrrolo[2,3-b]pyridine-1(6H)-yl)piperidin-4-yl)acetonitrile]
thermodynamic stability [1]: thermodynamically more stable | stability in suspension competition [2]: more stable | Changes in Crystal form ([3]; FaSSIF, 37° C., 1 h): no change | pH ([3]; FaSSIF, 37° C., 1 h): 6.41 | pH ([3]; FaSSIF, 37° C., 4 h): 6.49 | Changes in Crystal form ([3]; FaSSIF, 37° C., 24 h): no change | pH ([3]; FaSSIF, 37° C., 24 h): 6.54 | Changes in Crystal form ([3]; FeSSIF, 37° C., 1 h): no change | pH ([3]; FeSSIF, 37° C., 1 h): 4.92 | pH ([3]; FeSSIF, 37° C., 4 h): 4.95 | Changes in Crystal form ([3]; FeSSIF, 37° C., 24 h): no change | pH ([3]; FeSSIF, 37° C., 24 h): 4.99 | Changes in Crystal form ([3]; SGF, 37° C., 1 h): no change | pH ([3]; SGF, 37° C., 1 h): 2.92 | pH ([3]; SGF, 37° C., 4 h): 2.99 | Changes in Crystal form ([3]; SGF, 37° C., 24 h): no change | pH ([3]; SGF, 37° C., 24 h): 2.95 | crystal form stability when suspended and stirred ([3]; SGF/FeSSIF/FeSSIF, 24 hours, 37° C.): stable | solubility in three solvents (SGF/FaSSIF/FeSSIF), comparison ([3]; within 24 hours at 37° C.): greater than that of crystalline form Q | solid-state stability (conclusion) [4]: good solid-state stability | Purity (%) ([4]; 1 week, 25° C./60% RH): 99.64% | Purity (%) ([4]; 1 week, 40° C./75% RH): 99.62% | Purity (%) ([4]; 1 week, 60° C.): 99.62% | Crystal form changes ([4]; 1 week, 25° C./60% RH, 40° C./75% RH, 60° C.): no change | Purity (%) ([4]; 2 week, 25° C./60% RH): 99.60% | Purity (%) ([4]; 2 week, 40° C./75% RH): 99.60% | Purity (%) ([4]; 2 week, 60° C.): 99.66% | Crystal form changes ([4]; 2 week, 25° C./60% RH, 40° C./75% RH, 60° C.): no change | change in the crystalline form (XRPD) ([4]; after one week and two weeks of storage under the selected conditions): no change | change in purity ([4]; after one week and two weeks under the selected conditions): no significant change | Starting sample Purity (%) ([4]; starting sample): 99.59% | hygroscopicity class [5]: no or almost no hygroscopicity | weight gain (hygroscopicity) [5]: 0.05% | Content (%) ([6]; 0 d): 99.1% | Total impurity ([6]; 0 d): 0.325% | stability under accelerated test conditions (content, total impurities, XRPD) ([6]; 5000Lx light, 60° C., 90% RH±5% RH, 0, 5, 10, 30 days): better stability | Content (%) [6, 8]: 100.1% | Total impurity [6, 8]: 0.32% | Content (%) [6, 9]: 100.1% | Total impurity [6, 9]: 0.31% | Content (%) [6, 10]: 100.1% | Total impurity [6, 10]: 0.32% | Content (%) [6, 11]: 100.2% | Total impurity [6, 11]: 0.34% | Content (%) [6, 12]: 100.4% | Total impurity [6, 12]: 0.33% | Content (%) [6, 13]: 100.3% | Total impurity [6, 13]: 0.35% | Content (%) [6, 14]: 99.5% | Total impurity [6, 14]: 0.34% | Content (%) [6, 15]: 98.9% | Total impurity [6, 15]: 0.36% | Content (%) [6, 16]: 99.4% | Total impurity [6, 16]: 0.43% | bioavailability in the body [7]: high bioavailability

Reference: patent publication US20250019379A1, “NEW CRYSTAL FORM OF COMPOUND, AND PREPARATION METHOD THEREFOR AND USE THEREOF” (E-nitiate Biopharmaceuticals (Hangzhou) Co., Ltd, priority 2021, published 2025)
